One assay has as its target T1, Aurora-A (Homo sapiens, UniProt O14965).
T1 sequence (O14965 1-403): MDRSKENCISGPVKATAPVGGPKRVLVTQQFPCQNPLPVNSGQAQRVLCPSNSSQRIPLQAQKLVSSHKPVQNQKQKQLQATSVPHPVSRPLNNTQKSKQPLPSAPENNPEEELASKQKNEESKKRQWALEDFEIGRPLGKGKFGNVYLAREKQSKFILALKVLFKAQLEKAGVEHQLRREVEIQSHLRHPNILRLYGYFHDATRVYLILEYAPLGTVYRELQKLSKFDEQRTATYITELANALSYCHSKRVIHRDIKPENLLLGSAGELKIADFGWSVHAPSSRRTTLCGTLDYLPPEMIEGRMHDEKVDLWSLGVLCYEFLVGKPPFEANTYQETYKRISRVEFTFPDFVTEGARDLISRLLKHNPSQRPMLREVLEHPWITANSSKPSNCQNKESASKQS
Description: Flashplate Aurora A enzyme inhibition assay. It is filed as biochemical. As to conditions: Flashplate assay; IC50 range; read-out: Aurora-A inhibition. In outline: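 This is a radiometric Flashplate format: plates were precoated with DTT, and compound (in 2% DMSO) was mixed with kinase buffer (pH 7.5 Tris, MgCl2, NaCl) containing 1 mM MBP, 20 μM ATP and ^33P-ATP. The reaction was started with 250 ng Aurora-A per well and incubated 2 h at RT. It was then stopped by 10 mM sodium pyrophosphate washing, and plates were scintillation-counted.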

In the next assay the test system is HCT116 cells. Nature of the assay: Cell viability assay (MTT) in HCT116 cell line. To be noted: Homo sapiens, HCT-116, 72 hrs, IC50 range, read-out: HCT116 cell growth inhibition. The format is cell-based. In outline:
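MTT read-out (4 hrs, 37 °C, DMSO extraction) following 72 hrs of treatment with 0-50 μM Aurora inhibitor. HCT116 cells were plated a day earlier and tested in triplicate; IC50 derived from the curve.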

As to `Brc1cnc2[nH]c(-c3ccc(N4CCOCC4)cc3)nc2c1N1CCN(Cc2cccnc2)CC1` [Example 102, 4-(4-(6-Bromo-7-(4-(pyridin-3-ylmethyl)piperazin-1-yl)-3H-imidazo[4,5-b]pyridin-2-yl)phenyl)morpholine], the IC50 at Aurora-A and in the assay with HCT116 cells was under 0.5 µM throughout.

As for `Brc1cnc2[nH]c(-c3ccc(N4CCNCC4)cc3)nc2c1N1CCN(Cc2cccnc2)CC1` [Example 104, 6-Bromo-2-(4-(piperazin-1-yl)phenyl)-7-(4-(pyridin-3-ylmethyl)piperazin-1-yl)-3H-imidazo[4,5-b]pyridine], the IC50 at Aurora-A and in the assay with HCT116 cells was under 0.5 µM each time.

As to `CC(C)(C)OC(=O)N1CCN(Cc2ccc(-c3nc4c(N5CCN(Cc6cccnc6)CC5)c(Br)cnc4[nH]3)cc2)CC1` [Example 105, tert-Butyl 4-(4-(6-bromo-7-(4-(pyridin-3-ylmethyl)piperazin-1-yl)-3H-imidazo[4,5-b]pyridin-2-yl)benzyl)piperazine-1-carboxylate], the IC50 on Aurora-A was under 0.5 µM; with HCT116 cells it was 0.5 to 2 µM.

For `Brc1cnc2[nH]c(-c3ccc(Cn4cccn4)cc3)nc2c1N1CCN(Cc2cccnc2)CC1` [Example 107, 2-(4-((1H-Pyrazol-1-yl)methyl)phenyl)-6-bromo-7-(4-(pyridin-3-ylmethyl)piperazin-1-yl)-3H-imidazo[4,5-b]pyridine], the IC50 was under 0.5 µM at Aurora-A and 0.5 to 2 µM in the assay with HCT116 cells.

For the compound `Brc1cnc2[nH]c(-c3ccc(-n4cccn4)cc3)nc2c1N1CCN(Cc2cccnc2)CC1` [Example 108, 2-(4-(1H-pyrazol-1-yl)phenyl)-6-bromo-7-(4-(pyridin-3-ylmethyl)piperazin-1-yl)-3H-imidazo[4,5-b]pyridine], the IC50 at Aurora-A is under 0.5 µM; with HCT116 cells it was 0.5 to 2 µM.

In the case of `Brc1cnc2[nH]c(-c3ccc(-n4ccnc4)cc3)nc2c1N1CCN(Cc2cccnc2)CC1` [Example 109, 2-(4-(1H-Imidazol-1-yl)phenyl)-6-bromo-7-(4-(pyridin-3-ylmethyl)piperazin-1-yl)-3H-imidazo[4,5-b]pyridine], the results for the IC50 at Aurora-A and in the assay with HCT116 cells were under 0.5 µM and 0.5 to 2 µM, respectively.

On to `Brc1cnc2[nH]c(-c3ccc(Cn4ccnc4)cc3)nc2c1N1CCN(Cc2cccnc2)CC1` [Example 110, 2-(4-((1H-Imidazol-1-yl)methyl)phenyl)-6-bromo-7-(4-(pyridin-3-ylmethyl)piperazin-1-yl)-3H-imidazo[4,5-b]pyridine], for which the results for the IC50 on Aurora-A and in the assay with HCT116 cells were under 0.5 µM and 0.5 to 2 µM, respectively.

Turning to `CN(C)CCOc1ccc(-c2nc3c(N4CCN(Cc5cccnc5)CC4)c(Br)cnc3[nH]2)cc1` [Example 111, 2-(4-(6-Bromo-7-(4-(pyridin-3-ylmethyl)piperazin-1-yl)-3H-imidazo[4,5-b]pyridin-2-yl)phenoxy)-N,N-dimethylethanamine], the IC50 at Aurora-A and in the assay with HCT116 cells was under 0.5 µM each time.

On to `Brc1cnc2[nH]c(-c3ccc(OCCN4CCOCC4)cc3)nc2c1N1CCN(Cc2cccnc2)CC1` [Example 112, 4-(2-(4-(6-Bromo-7-(4-(pyridin-3-ylmethyl)piperazin-1-yl)-3H-imidazo[4,5-b]pyridin-2-yl)phenoxy)ethyl)morpholine], for which the figures for the IC50 on Aurora-A and in the assay on HCT116 cells were under 0.5 µM and 0.5 to 2 µM, respectively.

For the compound `Brc1cnc2[nH]c(-c3ccc(OC4CCNCC4)cc3)nc2c1N1CCN(Cc2cccnc2)CC1` [Example 113, 6-Bromo-2-(4-(piperidin-4-yloxy)phenyl)-7-(4-(pyridin-3-ylmethyl)piperazin-1-yl)-3H-imidazo[4,5-b]pyridine], the IC50 on Aurora-A and in the assay on HCT116 cells was under 0.5 µM in each case.

`OC1CCN(c2ccc(-c3nc4c(N5CCN(Cc6cccnc6)CC5)c(Br)cnc4[nH]3)cc2)CC1` [Example 114, 1-(4-(6-Bromo-7-(4-(pyridin-3-ylmethyl)piperazin-1-yl)-3H-imidazo[4,5-b]pyridin-2-yl)phenyl)piperidin-4-ol]: the IC50 on Aurora-A and with HCT116 cells was under 0.5 µM in each case.

Take `O=S1(=O)CCN(c2ccc(-c3nc4c(N5CCN(Cc6cccnc6)CC5)c(Br)cnc4[nH]3)cc2)CC1` [Example 115, 4-(4-(6-Bromo-7-(4-(pyridin-3-ylmethyl)piperazin-1-yl)-3H-imidazo[4,5-b]pyridin-2-yl)phenyl)-1,1-dioxothiomorpholine]: the figures for the IC50 at Aurora-A and in the assay with HCT116 cells were under 0.5 µM and 0.5 to 2 µM, respectively.

Turning to `COc1ccc(-c2nc3c(N4CCN(Cc5ccc(OC)nc5)CC4)c(Br)cnc3[nH]2)cc1` [Example 116, 6-Bromo-2-(4-methoxyphenyl)-7-(4-((6-methoxypyridin-3-yl)methyl)piperazin-1-yl)-3H-imidazo[4,5-b]pyridine], the IC50 on Aurora-A was under 0.5 µM; with HCT116 cells, 0.5 to 2 µM.

As for `COc1ccc(CN2CCN(c3c(Br)cnc4[nH]c(-c5ccc(CN6CCOCC6)cc5)nc34)CC2)cn1` [Example 117, 4-(4-(6-Bromo-7-(4-((6-methoxypyridin-3-yl)methyl)piperazin-1-yl)-3H-imidazo[4,5-b]pyridin-2-yl)benzyl)morpholine], the IC50 on Aurora-A was under 0.5 µM; in the assay on HCT116 cells it was 0.5 to 2 µM.

Turning to `COc1ccc(CN2CCN(c3c(Br)cnc4[nH]c(-c5ccc(N6CCOCC6)cc5)nc34)CC2)cn1` [Example 118, 4-(4-(6-Bromo-7-(4-((6-methoxypyridin-3-yl)methyl)piperazin-1-yl)-3H-imidazo[4,5-b]pyridin-2-yl)phenyl)morpholine], the IC50 on Aurora-A and in the assay with HCT116 cells was under 0.5 µM each time.

For `COc1ccc(-c2nc3c(N4CCN(Cc5cccc6c5OCO6)CC4)c(Br)cnc3[nH]2)cc1` [Example 119, 7-(4-(Benzo[d][1,3]dioxol-4-ylmethyl)piperazin-1-yl)-6-bromo-2-(4-methoxyphenyl)-3H-imidazo[4,5-b]pyridine], the IC50 at Aurora-A and with HCT116 cells was under 0.5 µM each time.

Take `Brc1cnc2[nH]c(-c3ccc(CN4CCOCC4)cc3)nc2c1N1CCN(Cc2cccc3c2OCO3)CC1` [Example 120, 4-(4-(7-(4-(Benzo[d][1,3]dioxol-4-ylmethyl)piperazin-1-yl)-6-bromo-3H-imidazo[4,5-b]pyridin-2-yl)benzyl)morpholine]: the IC50 is under 0.5 µM on Aurora-A and 2 to 50 µM in the assay with HCT116 cells.

`COc1ccc(-c2nc3c(N4CCN(Cc5cncnc5)CC4)c(Br)cnc3[nH]2)cc1` [Example 121, 6-Bromo-2-(4-methoxyphenyl)-7-(4-(pyrimidin-5-ylmethyl)piperazin-1-yl)-3H-imidazo[4,5-b]pyridine]: the IC50 on Aurora-A and in the assay on HCT116 cells was under 0.5 µM in each case.

With `Brc1cnc2[nH]c(-c3ccc(N4CCOCC4)cc3)nc2c1N1CCN(Cc2cncnc2)CC1` [Example 123, 4-(4-(6-Bromo-7-(4-(pyrimidin-5-ylmethyl)piperazin-1-yl)-3H-imidazo[4,5-b]pyridin-2-yl)phenyl)morpholine], the IC50 on Aurora-A is under 0.5 µM; in the assay with HCT116 cells it was 0.5 to 2 µM.

With `COc1ccc(-c2nc3c(N4CCN(Cc5ccc(C(F)(F)F)nc5)CC4)c(Br)cnc3[nH]2)cc1` [Example 124, 6-Bromo-2-(4-methoxyphenyl)-7-(4-((6-(trifluoromethyl)pyridin-3-yl)methyl)piperazin-1-yl)-3H-imidazo[4,5-b]pyridine], the figures for the IC50 at Aurora-A and in the assay on HCT116 cells were under 0.5 µM and 0.5 to 2 µM, respectively.

Turning to `FC(F)(F)c1ccc(CN2CCN(c3c(Br)cnc4[nH]c(-c5ccc(CN6CCOCC6)cc5)nc34)CC2)cn1` [Example 125, 4-(4-(6-Bromo-7-(4-((6-(trifluoromethyl)pyridin-3-yl)methyl)piperazin-1-yl)-3H-imidazo[4,5-b]pyridin-2-yl)benzyl)morpholine], the IC50 at Aurora-A and in the assay with HCT116 cells was under 0.5 µM each time.

Take `COc1ccc(-c2nc3c(N4CCN(Cc5c(C)noc5C)CC4)c(Br)cnc3[nH]2)cc1` [Example 127, 4-((4-(6-Bromo-2-(4-methoxyphenyl)-3H-imidazo[4,5-b]pyridin-7-yl)piperazin-1-yl)methyl)-3,5-dimethylisoxazole]: the results for the IC50 at Aurora-A and with HCT116 cells were under 0.5 µM and 0.5 to 2 µM, respectively.

Turning to `Cc1noc(C)c1CN1CCN(c2c(Br)cnc3[nH]c(-c4ccc(CN5CCOCC5)cc4)nc23)CC1` [Example 128, 4-(4-(6-Bromo-7-(4-((3,5-dimethylisoxazol-4-yl)methyl)piperazin-1-yl)-3H-imidazo[4,5-b]pyridin-2-yl)benzyl)morpholine], the IC50 on Aurora-A and with HCT116 cells was under 0.5 µM in each case.

As for `CC(c1ccncc1)N1CCN(c2c(Br)cnc3[nH]c(-c4ccc(CN5CCOCC5)cc4)nc23)CC1` (centres unmarked) [Example 129, 4-(4-(6-Bromo-7-(4-(1-(pyridin-4-yl)ethyl)piperazin-1-yl)-3H-imidazo[4,5-b]pyridin-2-yl)benzyl)morpholine], the IC50 on Aurora-A and with HCT116 cells was under 0.5 µM each time.

Turning to `CC(c1ccncc1)N1CCN(c2c(Br)cnc3[nH]c(-c4ccc(N5CCOCC5)cc4)nc23)CC1` (centres unmarked) [Example 130, 4-(4-(6-Bromo-7-(4-(1-(pyridin-4-yl)ethyl)piperazin-1-yl)-3H-imidazo[4,5-b]pyridin-2-yl)phenyl)morpholine], the figures for the IC50 at Aurora-A and with HCT116 cells were under 0.5 µM and 0.5 to 2 µM, respectively.
